The compounds below were run against T1, Lipoxygenase in Kaninchen-PMN-Leukozyten (Oryctolagus cuniculus, UniProt G1SNX0) (assay: Inhibition of lipoxygenase (release of 5-HETE and leukotriene B4) in rabbit PMN leukocytes).
T1 construct: Die polymorphkernigen Leukozyten des Menschen und des Kaninchens metabolisieren die Arachidonsäure; endogenous in cells; host or cells: rabbit polymorphonuclear (PMN) leukocytes
T1 sequence (G1SNX0 1-674): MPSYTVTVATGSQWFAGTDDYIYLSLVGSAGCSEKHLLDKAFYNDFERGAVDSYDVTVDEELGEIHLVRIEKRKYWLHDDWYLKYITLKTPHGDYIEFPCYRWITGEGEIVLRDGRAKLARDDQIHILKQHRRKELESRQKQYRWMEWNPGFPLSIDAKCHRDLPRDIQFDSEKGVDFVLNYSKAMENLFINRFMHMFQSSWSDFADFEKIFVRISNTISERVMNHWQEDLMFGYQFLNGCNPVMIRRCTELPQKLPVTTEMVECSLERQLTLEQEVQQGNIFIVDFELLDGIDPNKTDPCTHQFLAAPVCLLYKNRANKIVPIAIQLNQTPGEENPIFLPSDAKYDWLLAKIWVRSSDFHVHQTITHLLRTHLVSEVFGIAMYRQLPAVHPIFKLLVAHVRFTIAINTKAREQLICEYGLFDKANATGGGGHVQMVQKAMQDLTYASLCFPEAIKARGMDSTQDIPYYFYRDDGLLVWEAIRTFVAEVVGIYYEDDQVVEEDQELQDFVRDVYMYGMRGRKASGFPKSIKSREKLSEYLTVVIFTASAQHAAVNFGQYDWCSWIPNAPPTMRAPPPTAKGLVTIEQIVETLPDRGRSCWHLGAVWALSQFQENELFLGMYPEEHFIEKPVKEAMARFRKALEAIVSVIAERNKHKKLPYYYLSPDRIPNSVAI
Format: cell-based
Excerpt: Analog den vorstehenden Ausführungen lassen sich die lipoxygenasehemmenden Eigenschaften der erfindungsgemäßen Verbindungen auch an Leukozyten nachweisen.
Die polymorphkernigen Leukozyten des Menschen und des Kaninchens metabolisieren die Arachidonsäure zu 5-Hydroxy-5,8,11,14-eikosatetraensäure (5-HETE) und Leukotrien B4 (5S, 12R-Dihydroxy-6 cis, 8,10-trans-14 ciseikosatetraensäure). Die Hemmung der Freisetzung von 5-HETE und Leukotrien B4 aus den Leukozyten stellt ein Maß für den lipoxygenasehemmenden Effekt der erfindungsgemäßen Verbindungen dar. (Vergl. Tab. 1) Der Test mit den Humanleukozyten wurde nach Borgeat und Samuelsson (j. Biol. Chem. 254; 2643, 1979 und Proc. Natl. Acad. Sci. USA, 76, 2148 1979), mit Kaninchenleukozyten nach Walker und .Parish (Inter. Archs. Allergy appl. Immun. 66, 83, 1981) durchgeführt.

| Compound | Minimale Konzentration für die Hemmung der Lipoxygenase in Kaninchen-PMN-Leukozyten |
| --- | --- |
| CC1=C(C(=O)OCCC#N)Sc2ccccc2N1 [Beispiel 1, 3-Methyl-4H-1,4-benzothiazin-2-carbonsäure-(2-cyanethyl)-ester] | 5x10^-7 - 10^-6 g/ml |
| COC(=O)C1=C(C)Nc2ccccc2S1 [Beispiel 2] | 5x10^-7 - 10^-6 g/ml |
| CCOC(=O)C1=C(CC)Nc2ccccc2S1 [Beispiel 4] | 5x10^-7 - 10^-6 g/ml |
| CC1=C(C(=O)OC2CCCCC2)Sc2ccccc2N1 [Beispiel 5] | 5x10^-7 - 10^-6 g/ml |
| CSCCOC(=O)C1=C(C)Nc2ccccc2S1 [Beispiel 8] | 5x10^-7 - 10^-6 g/ml |
| CCCCOC(=O)C1=C(C)Nc2ccccc2S1 [Beispiel 9] | 10^-6 g/ml |
| CC(=O)C1=C(C)Nc2ccccc2S1 [Beispiel 11] | 10^-6 g/ml |
| CC1=C(C(=O)OCCc2ccccc2)Sc2ccccc2N1 [Beispiel 12] | 10^-6 g/ml |
| CC1=C(C(=O)OCc2ccccc2)Sc2ccccc2N1 [Beispiel 13] | 5x10^-7 - 10^-6 g/ml |
| COc1ccc2c(c1)SC(C(=O)OCCC#N)=C(C)N2 [Beispiel 28] | 10^-6 g/ml |
| CSCCOC(=O)C1=C(C)Nc2ccc(C)cc2S1 [Beispiel 29] | 10^-6 g/ml |
| CCOC(=O)C1=CNc2ccc(OC)cc2S1 [Beispiel 32] | 10^-6 g/ml |
| CCN1C=C(C(=O)O)Sc2cc([N+](=O)[O-])ccc21 [Beispiel 37] | 5e-06 g/mL |
| CCN1C=C(C(=O)OC)Sc2cc([N+](=O)[O-])ccc21 [Beispiel 40] | 5e-06 g/mL |

From patent EP0100527A1, “4H-1,4-benzothiazines for use as medicaments” (BAYER AG, priority 1982, dated 1984)
